Measurements published in US20220160751A1, “METHODS OF TREATMENT OF DISEASES AND DISORDERS ASSOCIATED WITH INCREASED TET LEVEL, INCREASED H19 LEVEL, INCREASED LEVEL OF TGF SIGNALING, OR ANY COMBINATION THEREOF” (YALE UNIVERSITY, priority 2019, published 2022).

How the values were obtained:
[1] = tested on: LX-2 human hepatic stellate cells; assay: qPCR and immunoblotting of gene expression in LX-2 cells; type: cell-based
Protocol: LX-2 human hepatic stellate cells (Yale Liver Center) were maintained in DMEM (Gibco, 11965-092) supplemented with 10% heat-inactivated fetal bovine serum (Gibco, 26140-079) and 1% PS (penicillin and streptomycin) at 37° C. in 5% humidified CO2 tissue culture incubator. Generally, cells were plated and transfected in a 24-well plate scale. For transfection with siRNA, let-7, or iLet7, 10 pmol of siTET3 (or siCon), let-7 (or miCon), or iLet7 (iCon) were mixed with 25 μl of OPTI-MEM (Gibco, 31985-070) by gentle pipetting. In parallel, 1 μl of Lipofectamine 3000 (ThermoFisher Scientific, L3000015) was mixed with 25 μl of OPTI-MEM. Then, the contents from the two tubes were mixed by gentle pipetting. After incubation for 5 min at RT, the resulting 50 μl solution was used to resuspend cell pellet (5×10^4 cells). After incubation at RT for 10 min, 450 μl of growth medium was added and the cell suspension was transferred into one well of a 24-well plate. For transfection with TET3-expression plasmid pTET3 (pcDNA-Flag-Tet3, Addgene plasmid #60940, (30)) or control vector, 5×10^4 cells per well were seeded in a 24-well plate the night before transfection. The next day, 0.75 μg of pTET3 (or Vec) were mixed with 1 μl of P3000 in 25 μl of OPTI-MEM by gentle pipetting. In parallel, 0.5 μl of Lipofectamine 3000 were mixed with 25 μl of OPTI-MEM. The contents from the two tubes were combined by gentle pipetting and incubated for 5 min at RT. The resulting 50 μl of transfection solution was added to each well of cells seeded in a 24-well plate the night before and from which the growth medium had been removed. After 6 h of incubation in a tissue culture incubator, 500 μl of growth medium were added to each well of cells. For TGF-β1 (Sigma, USA) treatment experiments, transfected cells were incubated in 500 μl of serum-free DMEM containing 5 ng/mL TGF-β1 (diluted with HCl) or HCl (as control) for 24 h or 48 h as indicated.
Total RNA was extracted from cultured cells or liver tissue samples using PureLink RNA Mini Kit (Ambion, 12183018A). 0.8 μg of total RNA was reverse transcribed to cDNA in a reaction volume of 10 μl using PrimeScript RT Reagent Kit (TAKARA, RR037A). Quantitative real-time PCR reactions were carried out using iQSYBRGreen (Bio-Rad) in a Bio-Rad iCycler. Gene expression levels were normalized against housekeeping genes HPRT1 and RPLP0.
For liver tissue samples, 5-10 mg of tissues were homogenized by sonication (Qsonica, Model Q125) in 150 μl of 2×SDS-sample buffer. Samples were immediately heated at 100° C. for 3 min with occasional vertexing. Then, 100 μl of 2×SDS-sample buffer was added to each sample and the 250 μl of tissue lysate were further homogenized by sonication and heated again at 100° C. for 3-5 min with vertexing once every 15 sec. Samples (further diluted at 1:1 with 2×SDS-sample buffer before loading) were loaded 5-10 μl per well onto a 4-15% gradient SDS gel, followed by Western blot analysis. Image J was used to quantify the protein bands.

[2] = tested on: UtLM and ht-UtLM leiomyoma cells; assay: RT-qPCR and Western blot of gene expression in leiomyoma cells; type: cell-based, human
Source text: Antibodies for TET3 (GeneTex, GTX121453; used at a dilution of 1/500), TGFBR2 (Abcam, ab184948; used at a dilution of 1/1000), TSP1 (Abcam, ab85762; used at a dilution of 1/500), MED12 (Novus Biological, NB100-2357; used at a dilution of 1/500), HMGA2 (Proteintech, 20795-1-AP; used at a dilution of 1/500), GRAF1 (Cell Signaling, 8802; used at a dilution of 1/500), SPARC (Cell Signaling, 8725; used at a dilution of 1/500), COL3A1 (LS-Bio, LS-C159386; used at a dilution of 1/1000), COL4A1 (LS-Bio, LS-C100552; used at a dilution of 1/500), COL5A2 (Origene, TA809611; used at a dilution of 1/500) and GAPDH (Abcam, ab128915; used at a dilution of 1/10000) were purchased. Human H19 siRNA (siH19) and control siRNA (siCon) were previously described (Ghazal S et al., 2015, EMBO Mol Med 7:996-1003). siTET3 (Ambion, 4392420/s47239), estradiol ([…], Sigma), and progesterone ([…], Sigma) were purchased. Estradiol and progesterone were dissolved in DMSO and used at a final concentration of 10^-8M. ht-UtLM cells tested negative for mycoplasma contamination were maintained in MEM (Sigma, #M3024) supplemented with 20% fetal bovine serum, 1×MEM Vitamin Solution (Invitrogen #11120-052), 1×MEM Amino Acids Solution (Invitrogen, #11130-051), and 1×MEM Non-Essential Amino Acids (Invitrogen #11140-050). Primary UtLM-1 and UtLM-2 cells were maintained in DMEM (Gibco, #10567014) supplemented with 20% fetal bovine serum, and 1% penicillin/streptomycin, 1% amphotericin B. All cells were transfected in a 24-well plate scale. To prepare siRNA transfection solution for each well, 10 pmol (5 pmol for primary cells) of siCon, siH19, or siTET3 were mixed with 25 μl of OPTI-MEM by gentle pipetting. In parallel, 1 μl of Lipofectamine 3000 was mixed with 25 μl of OPTI-MEM. Following 5 min of incubation at room temperature, the two were mixed by gentle inverting and incubated for 10 min at room temperature to allow siRNA/lipid complexes to form. At the end of incubation, the 50 μl of transfection solution was used to re-suspend the cell pellet (3×10^4 cells). After incubation at room temperature for 10 min, growth medium was added at a ratio of 1:9 (1 volume of transfection solution/9 volumes of growth medium), and the cell suspension was transferred to a new culture dish. After overnight incubation in a tissue culture incubator, the medium was replaced with fresh growth medium. For iLet 7 rescue experiments, 10 pmol of siCon/siH19 and 10 pmol of iCon/iLet7 were used for each well of 3×10^4 cells. RNA, genomic DNA, and protein were extracted and analyzed at the indicated time points following transfection.

With “siTET3: TET3-specific siRNA (human), Ambion 4392420/s47239 (sense CAGCAACUCCUAGAACUGATT; antisense UCAGUUCUAGGAGUUGCUGGA; chemistry not given here)” the “expression of TGFB1, TSP1 and TGFBR2 (mRNA and protein)” value ([1]; 48 h post-transfection, vs siCon or Vec) was “decreased expression of TGFB1, TSP1 and TGFBR2”, the “TGF-β1-induced TGF-β signaling and profibrotic gene expression” value ([1]; TET3 siRNA 24 h, then TGF-β1 5 ng/mL 24 h) was “the effects were no longer observed” and the “protein levels of MED12, TGFBR2, TSP1, GRAF1, SPARC, COL5A2, COL4A1, COL3A1 (Western blot)” value ([2]; UtLM cells, vs siCon) was “all decreased”. The MED12 expression ([2]; ht-UtLM cells) was “lack of effects” and the “mRNA expression of TET3, MED12, TGFBR2, TSP1, GRAF1, SPARC, COL3A1, COL4A1 and COL5A2” value ([2]; primary human leiomyoma cells and ht-UtLM, 48 h, vs siCon) was “results similar to those of H19 knockdown were obtained”.
